Test results reported in ChEMBL document CHEMBL1127587, “Modeling the anticarcinogenic action of retinoids by making use of the OASIS method. 3. Inhibition of the induction of ornithine decarboxylase by arotinoids” (J Med Chem, 1994).

experiment: Tested for experimental arotinoid inhibitory dose

-Log ID50	SMILES
9.3	C/C(=C\c1ccc(C(=O)O)cc1)c1ccc2c(c1)C(C)(C)CCS2
8.57	C/C(=C\c1ccc(C(=O)O)cc1)c1ccc2c(c1)C(C)(C)CCO2
9.22	C/C(=C\c1ccc(C(=O)O)cc1)c1ccc2c(c1)SCCC2(C)C
6.7	C/C(=C\c1ccc(C(=O)O)cc1)c1ccc2ccc(C)c(C)c2c1
10.3	C/C(=C\c1ccc(C(=O)O)cc1)c1ccc2c(c1)C(C)(C)CC[C@@H]2C
10.22	C/C(=C\c1ccc(C(=O)O)cc1)c1ccc2c(c1)C(C)(C)CC[C@H]2C
10.15	C/C(=C\c1ccc(C(=O)O)cc1)c1ccc2c(c1)C(C)(C)CCC2C (stereo not given)
8.8	C/C(=C\c1ccc(C(=O)O)cc1)c1ccc2c(C)c(C)c(C)c(C)c2c1
10.1	C/C(=C(/F)c1ccc(C(=O)O)cc1)c1ccc2c(c1)C(C)(C)CCC2(C)C
10.52	C/C(=C\c1ccc(C(=O)O)cc1)c1ccc2c(c1)C(C)(C)CCC2(C)C
8.51	C/C(=C\c1ccc(C(=O)O)cc1)c1ccc2c(c1)C1CCC2C1 (stereo not given)

Continued, compound first:

SMILES	-Log ID50
C/C(=C(/F)c1ccc(C(=O)O)cc1)c1cc2c(s1)CCCC2(C)C	9.22
COc1ccc(/C(C)=C/c2ccc(C(=O)O)cc2)cc1C(C)(C)C	9.4
C/C(=C\c1ccc2c(c1)C(C)(C)CCS2)c1ccc(C(=O)O)cc1	9.22
CC1(C)CCC(C)(C)c2cc3cc(-c4ccc(C(=O)O)cc4)ccc3cc21	10.15
C/C(=C\c1ccc(C(=O)O)cc1)c1ccc2c(c1)CCCC2(C)C	9.22
C/C(=C\c1ccc(C(=O)O)cc1)c1ccc2c(c1)C(C)(C)CCC2	8.96
C/C(=C\c1ccc2c(c1)C(C)(C)CCC2(C)C)c1ccc(C(=O)O)cc1	10.52
C/C(=C\c1ccc(C(=O)O)cc1)c1cc2c(s1)CCCC2(C)C	10
C/C(=C\c1ccc(C(=O)O)cc1)c1ccc(SCCC(C)C)cc1	6.77
